Measured values taken from patent publication US12721934B2, “Cationic nanodrug, preparation method therefor, and drug-loaded implantable medical device” (SHANGHAI MICROPORT MEDICAL (GROUP) CO., LTD., priority 2019, dated 2026).

Test system: Vascular smooth muscle cells (SMCs)
Assay: Cytotoxicity of the cationic substances (MTT)
Type: cell-based
Description: Vascular smooth muscle cells (SMCs) were collected and the cell concentration was determined using a hemocytometer. The cell concentration was adjusted to […] using a liquid cell culture medium. The cell suspension was dispensed on a 96-well plate ([…] cells in each well) and the wells were divided into groups (a control group and four test groups), four wells for each group. After the cells were cultivated for 24 hours under regular cell culture conditions, the culture medium was pipetted away. Each of the fresh culture media and culture media respectively containing the suspensions of non-drug loaded nanoparticles prepared in Example 14, Comparative Example 2 and Comparative Example 3 was added (the cationic substance in each of the three examples has a same concentration). After the cells were further cultivated for 24 hours, 50 μL of an MTT agent was dispensed into each well, and the cells were then incubated for 4 hours in a CO2 incubator. After that, the culture media were carefully pipetted away, and 150 μL of dimethyl sulfoxide was added to each well. The plate was then shaken gently to facilitate dissolution of formazan. Absorbance of each well at 490 nm was measured using a microplate reader, and cell survival rates were calculated according to: […]

Row | Compound | Cytotoxicity (in words)
1 | CCCCCCCCCCCC[N+](C)(C)CCCCCCCCCCCC.[Br-] [DMAB, didodecyldimethylammonium bromide] | serious cytotoxicity
2 | CCCCCCCC/C=C\CCCCCCCC(=O)OCC(C[N+](C)(C)C)OC(=O)CCCCCCC/C=C\CCCCCCCC.[Cl-] (centres unmarked) [DOTAP, 1,2-dioleoyl-3-trimethylammonium-propane chloride] | does not show noticeable cytotoxicity
